Results reported in patent US12152012B2, “BRAG2 inhibitors and applications thereof” (CENTRE NATIONAL DE LA RECHERCHE SCIENTIFIQUE, priority 2018, dated 2024).

Key:
[1] = target: T1, BIG1 (DCB-HUS-Sec7 construct) (Homo sapiens, UniProt Q9Y6D6); assay: Nucleotide exchange kinetics on liposomes, activation of myristoylated Arf1; type: biochemical; details: 50 μM
T1 construct: BIG1^Sec7 (691-889), BIG1^DcbHusSec7 (2-888); made in house
T1 sequence (Q9Y6D6 2-888): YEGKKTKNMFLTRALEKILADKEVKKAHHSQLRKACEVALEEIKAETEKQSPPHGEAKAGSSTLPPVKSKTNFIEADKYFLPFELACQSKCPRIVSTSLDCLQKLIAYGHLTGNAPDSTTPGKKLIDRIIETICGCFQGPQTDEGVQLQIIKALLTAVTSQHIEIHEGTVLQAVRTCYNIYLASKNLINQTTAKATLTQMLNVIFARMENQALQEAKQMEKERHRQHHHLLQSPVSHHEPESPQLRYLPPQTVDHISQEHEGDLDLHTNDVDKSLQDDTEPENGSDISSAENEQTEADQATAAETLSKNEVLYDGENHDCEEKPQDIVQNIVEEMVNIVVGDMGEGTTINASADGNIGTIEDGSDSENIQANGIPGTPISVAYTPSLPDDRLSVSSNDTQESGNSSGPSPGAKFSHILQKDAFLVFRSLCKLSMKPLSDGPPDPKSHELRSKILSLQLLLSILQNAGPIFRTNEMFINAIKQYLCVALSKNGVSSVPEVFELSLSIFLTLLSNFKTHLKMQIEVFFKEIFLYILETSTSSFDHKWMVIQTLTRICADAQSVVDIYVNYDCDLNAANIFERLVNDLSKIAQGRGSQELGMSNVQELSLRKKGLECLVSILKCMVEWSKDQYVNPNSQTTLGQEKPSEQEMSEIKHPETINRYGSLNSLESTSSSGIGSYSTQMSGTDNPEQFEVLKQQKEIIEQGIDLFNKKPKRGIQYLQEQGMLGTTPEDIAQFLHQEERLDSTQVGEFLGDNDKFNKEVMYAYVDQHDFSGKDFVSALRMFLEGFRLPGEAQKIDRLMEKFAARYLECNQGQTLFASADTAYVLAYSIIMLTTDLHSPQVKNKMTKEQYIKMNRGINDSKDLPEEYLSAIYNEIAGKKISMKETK
Protocol: (§1) The effect of Bragsin1 on the GEF efficiency of representative human ArfGEFs was evaluated by fluorescence kinetics using highly purified recombinant Arf GTPases and ArfGEFs. In a first series of assays, the Sec7 domains of BIG1, a Golgi ArfGEF, and of ARNO, EFA6a and BRAG2, which function at the plasma membrane, were used. When tested in solution, Bragsin1 had no effect on the activation of Arf1 by any of these Sec7 domains (FIGS. 2a and 14). Separately, we reconstituted the activation of myristoylated Arf1 by the same ArfGEFs on liposomes using ArfGEF constructs that contain a membrane-binding domain (DCB-HUS domain for BIG1, PH domains for the other GEFs). […] BRAG2 activates several Arf isoforms, including the plasma membrane-located Arf6 isoform. […] Bragsin1 and Bragsin2 have the same IC50 towards BRAG2 ([…]) according to dose-response analysis, confirming that Bragsin1 and Bragsin2 can be used interchangeably (FIG. 2d). The specific inhibition of BRAG2 by Bragsin in vitro predicts that BRAG2 silencing by siRNA should yield the same phenotype as treatment by the small molecule. Silencing of BRAG2 induced the redistribution of TGN46 into tubular or punctate structures, which phenocopied the effects induced by Bragsin (FIGS. 2e, 17 and 18). […] Silencing of ARNO, which is located at the plasma membrane, had no effect on TGN46 distribution. Overexpression of BRAG2-mCherry rescued the dispersion of the TGN46 structure induced by Bragsin, which is consistent with the silencing experiments (FIG. 2f). Bragsin is a specific inhibitor of the ArfGEF BRAG2 in vitro and in cells according to these experiments. These oexperiments identify a mechanism of inhibition that requires the membrane to manifests itself.
(§2) Bovine Δ17Arf1 and human Δ13Arf6, full-length myristoylated Arf1 and Arf6, human BRAG2^Sec7 (390-594) and BRAG2^Sec7PH (390-811), human EFA6^Sec7 (527-727) and EFA6^Sec7PHCt (527-1024), ARNO^Sec7 (50-256), BIG1^Sec7 (691-889), BIG1^DcbHusSec7 (2-888) and ARNO^Sec7PH (50-399) were expressed and purified as in (Benabdi, S. et al. Family-wide Analysis of the Inhibition of Arf Guanine Nucleotide Exchange Factors with Small Molecules: Evidence of Unique Inhibitory Profiles. Biochemistry 56, 5125-5133 (2017)) and references therein. BRAG2^Sec7PH mutants were purified as the wild type protein. Purification of human full-length Rac1 carrying a 6xHis tag in C-terminus and human TRIO^DH1PH1 (1232-1550) was described in (Peurois, F. et al. Characterization of the activation of small GTPases by their GEFs on membranes using artificial membrane tethering. Biochem J 474, 1259-1272 (2017)).
(§3) Lipids (of natural origin) were from Avanti Polar Lipids, except NBD-PE from Sigma. Liposomes were prepared as described in (Aizel, K. et al. Integrated conformational and lipid-sensing regulation of endosomal ArfGEF BRAG2. PLOS Biol 11, e1001652 (2013)) and extruded at 0.2 μm. For the Arf GEF specificity studies, liposomes contained 48% phosphatidylcholine (PC), 20% phosphatidylethanolamine (PE), 30% phosphatidylserine (PS) and 2% phosphatidylinositol-4,5-bisphosphate (PIP2). For Rac activation assay, liposomes contained 43% PC, 20% PE, 10% PS, 20% cholesterol, 2% PIP2, 5% NiNTA lipids and 0.2% NBD-PE. To exclude aggregation or disruption of the liposomes, their size distribution was controlled before and after experiments by dynamic light scattering as described in (Benabdi, S. et al. Biochemistry 56, 5125-5133 (2017)). Dose-response and flotation assays were carried out with liposomes containing 37.9% PC, 20% PE, 20% PS, 2% PIP2, 20% cholesterol and 0.1% NBD-PE. Flotation assays were carried out as in 18.
(§4) Nucleotide exchange kinetics were monitored by tryptophan fluorescence with excitation/emission wavelengths of 292/340 nm using a Cary Eclipse fluorimeter (Varian) at 37° C. and under continuous stirring as described in ^50,51. […]

[2] = target: T2, EFA6 (Sec7PHCt construct) (Homo sapiens, UniProt A5PKW4); assay: as above; type: biochemical; details: 50 μM
T2 construct: human EFA6^Sec7 (527-727) and EFA6^Sec7PHCt (527-1024); made in house
Protocol: as §1, §2, §3, §4

T2 sequence (A5PKW4 527-1024): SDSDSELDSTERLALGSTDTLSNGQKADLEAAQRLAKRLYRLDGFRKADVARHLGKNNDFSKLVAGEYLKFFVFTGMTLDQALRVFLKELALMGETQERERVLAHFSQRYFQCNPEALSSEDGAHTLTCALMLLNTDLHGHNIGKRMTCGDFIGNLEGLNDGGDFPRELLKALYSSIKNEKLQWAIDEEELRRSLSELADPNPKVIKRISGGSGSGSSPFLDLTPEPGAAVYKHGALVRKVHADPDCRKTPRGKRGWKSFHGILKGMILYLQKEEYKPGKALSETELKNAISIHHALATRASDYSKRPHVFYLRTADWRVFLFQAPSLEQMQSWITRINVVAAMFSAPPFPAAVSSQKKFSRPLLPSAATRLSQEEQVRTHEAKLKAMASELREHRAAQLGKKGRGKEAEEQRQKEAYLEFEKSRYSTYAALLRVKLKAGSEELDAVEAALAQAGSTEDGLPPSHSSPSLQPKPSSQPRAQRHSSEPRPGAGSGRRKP

## Cc1ccc2oc(C(F)(F)F)cc(=O)c2c1[N+](=O)[O-] [Bragsin1, 6-methyl-5-nitro-2-(trifluoromethyl)-4H-chromen-4-one]
[1]
  Effect on ArfGEF activity on liposomes: no effect
[2]
  Effect on ArfGEF activity on liposomes: no effect
